Source: BindingDB's records for doi:10.1016/S0960-894X(97)00434-4 (1997)

Tests used:
[1] = Compound was tested for the inhibition of Escherichia coli glutamyl-t-RNA synthetase
[2] = Compound was tested for the inhibition of aminoacyl tRNA Synthetase

Compound	Ki [1] [µM]	Ki [2] [µM]
NC(CCC(=O)O)C(=O)OC[C@H]1CCCN1 (stereo not given in full)	380	–
COc1cc(CNC(=O)CCCC/C=C/C(C)C)ccc1O [Zostrix]	–	42
NC(CCC(=O)O)C(=O)OC[C@@H]1CCCN1 (stereo not given in full)	11400	–

More lines, in order of falling Ki [1], values ahead:

Ki [1] [µM]	Compound	Ki [2] [µM]
500	NC(CCC(=O)O)C(=O)OC[C@H]1OC(O)[C@H](O)[C@@H]1O (stereo not given in full)	–
20	NC(CCC(=O)O)C(=O)OC[C@H]1C[C@@H](O)C[C@@H](CO)N1 (stereo partly drawn) [4-ammonio-5-{[(2R,4S,6S)-4-hydroxy-6-(hydroxymethyl)piperidin-2-yl]methoxy}-5-oxopentanoate]	–
